Consider 2 molecules from patent US10597398B2, “Suppression and regeneration promoting effect of low molecular weight compound on cancer and fibrosis” (NATIONAL UNIVERSITY CORPORATION TOTTORI UNIVERSITY, priority 2015, dated 2020).

Holding throughout (format): cell-based, human
The test system of series [1] is HuH-7 cells. Nature of the series: Growth inhibitory effect on cancer cells (WST assay), Example 2.3. The note with it: for IC50: HuH-7 cells, WST assay, concentrations 0-50 μM, control 0.1% DMSO; for IC50 compared with IC-2: comparison with IC-2. The procedure:
HuH-7 cells, a human liver cancer cell line, were cultured on 10-cm cell culture dishes (TPP Techno Plastic Products AG, Trasadingen, Switzerland) by using DMEM under conditions at 5% CO2, 37° C., and 100% humidity. When the cells were 70 to 90% confluent, 200 μL of 0.25% Trypsin/1 mM EDTA solution, which had been prepared by diluting the stock solution 10-fold with PBS (−), was added to detach the cells. Then, the cells were centrifuged at 1000 rpm for 3 min at room temperature. The cells recovered were subcultured at a 1:4 split ratio.
First, 70 to 90% confluent HuH-7 cells were harvested and seeded (n=3) at 5×10^3 cells/well of a 96-well plate (TPP). After 24 h, each compound was added to the cells and the mixture was cultured at 37° C. The concentrations of each compound were 0, 10, 20, 30, 40, and 50 μM. For IC-2-506-1, however, the concentrations used were 0, 10, 20, 25, 30, 40, and 50 μM. Each control sample (0 μM) used was 0.1% DMSO, a solvent for each compound.
Next, 0, 24, 48, and 96 h after the compound treatment, 100 μIL of DMEM-diluted 10% Cell Counting Kit-8 (DOJINDO LABORATORIES, Kumamoto) was added. The mixture was incubated at 37° C. for 60 min and its absorbance (at a measurement wavelength of 450 nm/control wavelength of 600 nm) was measured by using a Sunrise Rainbow RC (Tecan Group Ltd., Mannedorf, Switzerland). Absorbance for the cells alone was calculated by subtracting, from the reading obtained, absorbance for 10% Cell Counting Kit-8 alone.
The “*” in figures indicates a significant difference of p<0.05 between 0.1% DMSO and each compound; and the “**” indicates a significant difference of p<0.01 (the same applies to all the figures in Examples).

The test system of series [2] is LX-2 cells. Nature of the series: Anti-fibrosis effect, summary statements on Example 3 (marker not specified). The text has this:
α-Smooth muscle actin (α-SMA), a fibrosis marker, was used as an indicator, and RNA was collected from LX-2 cells treated with each low-molecular-weight compound. Next, an inhibitory effect on fibrosis was examined by real-time RT-PCR.
In addition, instead of α-SMA, another fibrosis marker collagen, type I, alpha 1 (COL1A1) was used as an indicator, and substantially the same protocol was repeated. The concentrations of each compound used were as described in FIG. 34. Each control sample used was 0.1% DMSO, a solvent for each compound. Here, COL1A1 primers used were 5′-CCT CCA GGG CTC CAA CGA G-3′ and 5′-TCAATCACTGTCTTGCCCCA-3′. The annealing was performed at 58° C. for 5 sec. The measurement results were obtained by dividing the calculated value for the COL1A1 gene by the calculated value for the GAPDH gene.

The test system of series [3] is mesenchymal stem cell. Kind of series: Hepatocyte differentiation-inducing effect, summary statements on Example 4 (readout not specified). The text has this:
Albumin, a hepatocyte marker, was used as an indicator, and RNA was collected from cells treated with each compound. Next, a hepatocyte differentiation-inducing effect was examined by real-time RT-PCR. The concentrations of the respective compounds were as described in FIG. 35. Each control sample used was 0.1% DMSO, a solvent for each compound.
By using urea synthesis, a hepatocyte function, as an indicator, a hepatocyte differentiation-inducing effect of each compound was investigated.
The cells treated with each compound were subjected to immunofluorescence analysis of albumin, a hepatocyte marker, to investigate a hepatocyte differentiation-inducing effect. The concentrations of the respective compounds were as described in FIG. 37. Each control sample used was 0.1% DMSO, a solvent for each compound.
By using glycogen synthesis, a hepatocyte function, as an indicator, a hepatocyte differentiation-inducing effect of each compound was investigated.

Series [4] has as its system Wnt/β-catenin signaling. Nature of the series: Inhibitory effect on Wnt/β-catenin signaling in liver stellate cells (LX-2, TCF4 luciferase). The conditions noted are these: concentration equal to or lower than that of IC-2. The method, then:
While each compound was added at concentrations where the cell growth of fibrosis-causing liver stellate LX-2 cells was reduced to about 50 to 80%, Wnt/β-catenin signaling activity was measured. […] The concentrations of the respective compounds were as described in FIG. 41. Each control sample used was 0.1% DMSO, a solvent for each compound.
LX-2 cells, which were cultured and maintained by using 10% FBS/DMEM, were harvested and seeded (n=3) in 1% FBS/DMEM at 4.0×10^4 cells per well of a 24-well plate. Next, 25 μL of Opti-MEM (Gibco, Life Technologies Corp., Carlsbad, Calif.) containing 50 ng of pTCF4-CMVpro-GL4.20, having 3 copies of TCF motifs (CCT TTG ATC) upstream of a CMV promoter in a multiple cloning site of pGL4.20 (Promega), and 5 ng of pRL-CMV Vector (Promega) and 25 μL of Opti-MEM containing 0.4 μL of Lipofectamine 2000 (Invitrogen, Life Technologies Corp., Carlsbad, Calif.) were mixed and incubated at room temperature for 20 min. At 20 h after the cell seeding, the mixture was added to each well, so that both reporter plasmids were transiently transfected into the cells. After additional 4 h, 2.5 ng/mL of TGF-β and each compound were added to the cells and the mixture was cultured at 37° C.
At 24 and 48 h after the compound treatment, the culture medium was discarded, and 100 μL of room temperature 5×Passive Lysis Buffer (PLB), which had been diluted 5-fold with MilliQ water, was added to each well. Next, the plate was shaken at room temperature for 15 min and was then frozen at −30° C. overnight. A Luciferase Assay Substrate was diluted with 10 mL of room temperature Luciferase Assay Buffer II to prepare Luciferase Assay Reagent II (LARII). Then, 1 μL of Stop&Glo Substrate was diluted with 49 μL of room temperature Stop&Glo Buffer to prepare Stop&Glo (Promega) in a quantity enough for samples.
The frozen PLB lysate samples were thawed and permeabilized for 15 min. After that, 50 μl aliquots of LARII were dispensed into 3.5 mL test tubes (Sarstedt, AG & Co., Numbrecht, Germany) and 10 μL of each frozen PLB lysate sample was added and mixed well. Subsequently, luminescence was quantified by using a MiniLumat LB 9506 (Berthold Technologies GmbH & Co, Bad Wildbad, Germany) to measure firefly luciferase activity. After the measurement, 50 μL of Stop&Glo was added and mixed well and luminescence was then quantified by using the MiniLumat LB 9506 to determine Renilla luciferase activity. The measurement results were obtained by dividing the firefly luciferase activity by the Renilla luciferase activity.

The subject of series [5] is Wnt/β-catenin signaling. Kind of series: Inhibitory effect on Wnt/β-catenin signaling in liver cancer cells (HuH7-TCF4 luciferase). The note with it: concentration equal to or lower than that of IC-2. The method, then: A pTCF4-CMVpro-GL4.20 plasmid vector, which had been constructed by inserting 3 copies of TCF4 motifs (CCT TTG ATC) upstream of a CMV promoter into a multiple cloning site of pGL4.20 (Promega Corp., Fitchburg, Wis.), was linearized and stably transfected into the HuH-7 cells. The resulting stable cells (HuH7-TCF4 cells) and HuH-7 cells were likewise cultured.
While each compound was added at concentrations where the growth of HuH-7 cells was reduced to about 50% or less, Wnt/β-catenin signaling activity was measured. The concentrations of the respective compounds were as described in FIG. 40. Control samples used were 0.1% DMSO, a solvent for each compound, and 0.5 μM 5-FU.
First, 70 to 90% confluent HuH7-TCF4 cells were harvested and seeded (n=3) at 5.0×10^4 cells/well of a 24-well plate (TPP). After 24 h, each compound was added to the cells and the mixture was cultured at 37° C.
At 48 h after the compound treatment, the culture medium was discarded, and 100 μL of room temperature 5×Passive Lysis Buffer (PLB) (Promega Corp., Fitchburg, Wis.), which had been diluted 5-fold with MilliQ water, was added to each well. Next, the plate was shaken at room temperature for 15 min and was then frozen at −30° C. overnight. A Luciferase Assay Substrate was diluted with 10 mL of room temperature Luciferase Assay Buffer II to prepare Luciferase Assay Reagent II (LARII) (Promega). The frozen PLB lysate samples were thawed and permeabilized for 15 min. Then, 10 μL aliquots were added to wells of a 96-well white plate (Corning Inc., Corning, N.Y.). While 50 μL aliquots of LARII were each added to each well, luminescence was quantified by using a 1420 multi-label counter ARVO MX (PerkinElmer Singapore Pte Ltd., Singapore) to determine firefly luciferase activity. Note that a significant difference was evaluated by using (two-tailed) Student's t-test. The “*” in figures indicates a significant difference of p<0.05 between 0.1% DMSO and each compound; and the “**” indicates a significant difference of p<0.01 (the same applies to all the figures in Examples).

As to `O=C1C(Cc2ccccc2)N2C(=O)CCN(C(=O)NCc3ccccc3)C2CN1Cc1ccc(Cl)cc1Cl` (stereo not drawn) [IC-2-506-2], in series [1], it took 25.6 µM to reach half-maximal inhibition (IC50) and the “IC50 compared with IC-2” value was “lower IC50 than IC-2”. The “anti-fibrosis effect compared with IC-2, equal or higher concentration” value in series [2] (concentration equal to or higher than that of IC-2) is “more potent anti-fibrosis effect”. The “hepatocyte-inducing effect compared with IC-2” value in series [3] (concentration higher than that of IC-2) is listed as “more potent hepatocyte-inducing effect”. Moreover, in series [4], the “inhibitory effect on Wnt/β-catenin signaling pathway in liver stellate cells compared with IC-2” value is recorded as “more potent inhibitory effect”.

Regarding `O=C1C(Cc2ccccc2)N2C(=O)CCN(C(=O)NCc3ccc(Cl)cc3)C2CN1Cc1cccc2ccccc12` (stereo not drawn) [IC-2-Cl], in series [1], the IC50 is 14.4 µM and the “IC50 compared with IC-2” value is listed as “lower IC50 than IC-2”. The “anti-tumor effect compared with IC-2” value in series [1] (at a concentration lower than that of IC-2) is recorded as “more potent anti-tumor effect”. Further, the “anti-fibrosis effect compared with IC-2, lower concentration” value in series [2] (concentration even lower than that of IC-2) is reported as “more potent anti-fibrosis effect”. In addition, the “hepatocyte-inducing effect at low concentration” value in series [3] (low concentration) is recorded as “exerted a hepatocyte-inducing effect”. Further, the “inhibitory effect on Wnt/β-catenin signaling pathway in liver cancer cells compared with IC-2” value in series [5] was “more potent inhibitory effect”. For the same molecule, in series [4], the “inhibitory effect on Wnt/β-catenin signaling pathway in liver stellate cells compared with IC-2” value is recorded as “more potent inhibitory effect”.
